This note sets out measurements from ChEMBL document CHEMBL3612051, “Carbonic anhydrase inhibitors: Design, synthesis and structural characterization of new heteroaryl-N-carbonylbenzenesulfonamides targeting druggable human carbonic anhydrase isoforms” (Eur J Med Chem, 2015).

Molecules are shown by their SMILES.

The target of one experiment is Carbonic anhydrase 9 (Homo sapiens, UniProt Q16790). As to the kind of experiment: Inhibition of human recombinant full length carbonic anhydrase 9 preincubated for 15 mins by stopped-flow CO2 hydration assay.
Broadly, the Ki is the equilibrium dissociation constant of an inhibitor or competing ligand from its target. For the compound `COc1cc2c(cc1OC)CN(C(=O)c1ccc(S(N)(=O)=O)cc1)CC2`, the Ki was 6.1 nM.
Turning to `NS(=O)(=O)c1ccc(C(=O)N2CCc3cc(O)c(O)cc3C2)cc1`, the Ki is 5.01 nM.
On the same count and under the same terms, under `COc1ccc2c(c1)CCN(C(=O)c1ccc(S(N)(=O)=O)cc1)C2` stands 27 nM; under `NS(=O)(=O)c1ccc(C(=O)N2CCc3cc(O)ccc3C2)cc1`, 28 nM; under `NS(=O)(=O)c1ccc(C(=O)N2CCc3ccccc3C2)cc1`, 7.5 nM.
On the same count and under the same terms, then `COc1ccc2c(c1)CCCN2C(=O)c1ccc(S(N)(=O)=O)cc1`, with 6.5 nM.
Still for that read-out and setting: then `NS(=O)(=O)c1ccc(C(=O)N2CCCc3cc(O)ccc32)cc1`, with 42 nM; and `NS(=O)(=O)c1ccc(C(=O)N2CCCc3ccccc32)cc1`, with 9.4 nM.

The target in a further experiment is Carbonic anhydrase 7 (Homo sapiens, UniProt P43166). As to the kind of experiment: Inhibition of human recombinant full length carbonic anhydrase 7 preincubated for 15 mins by stopped-flow CO2 hydration assay.
Sequence of Carbonic anhydrase 7 (P43166 whole entry): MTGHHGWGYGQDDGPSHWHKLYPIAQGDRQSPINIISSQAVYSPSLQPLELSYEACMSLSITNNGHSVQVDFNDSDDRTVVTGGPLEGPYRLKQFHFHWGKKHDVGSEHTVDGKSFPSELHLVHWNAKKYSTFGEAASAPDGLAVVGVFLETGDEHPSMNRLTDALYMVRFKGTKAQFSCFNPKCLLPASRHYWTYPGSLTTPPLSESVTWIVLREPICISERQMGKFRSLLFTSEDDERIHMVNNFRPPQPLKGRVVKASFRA
Usually IC50 stands for the midpoint of a concentration-inhibition curve. With `COc1ccc2c(c1)CCCN2C(=O)c1ccc(S(N)(=O)=O)cc1`, the IC50 is > 50000 nM.
